{"source": "patent US11401303B2", "about": "“Synthetic peptide BRAP and application in preparation of anti-inflammatory drug for COVID-19 thereof” (TAIAN CITY QIHANG BIOTECHNOLOGY CO., priority 2020, dated 2022)", "test_system": "endotoxin", "test": "Endotoxin content in blood of LPS-induced mice (LAL kit)", "format": "in vivo, Balb/C mice", "conditions": "low, medium and high dose (4, 8, 16 mg/kgBW i.v.); 6 h after LPS 5 mg/kg BW i.p.; dose-response relationship", "method": "The detection was performed according to the specification of the endotoxin test LAL (Limulus Amebocyte Lysate) kit:\n(1) anticoagulant venous blood of each group of mice constructed in example 9 was taken and centrifuged for 2 min at 3000 rpm/min; 100 ul supernate was taken and added to a 0.9 ml sample treating fluid;\n(2) the above sample was put in a 70° C. dry-heat sterilization box for 10 min, then cooled by running water;\n(3) concentration gradient of an endotoxin standard was 1.0, 0.5, 0.25 and 0.1 EU/ml;\n(4) several endotoxin-free test tubes were taken, and 100 ul water for detecting bacterial endotoxin, an endotoxin standard and a test product were added respectively;\n(6) 100 ul TAL solution was added, mixed evenly, and covered by a silver paper, and incubated for 10 min at 37° C.;\n(7) 100 ul developing-matrix solution was added, mixed evenly, and incubated for 6 min at 37° C.;\n(8) 500 ul azo reagent 1 was added and mixed evenly;\n(9) 500 ul azo reagent 2 was added and mixed evenly;\n(10) 500 ul azo reagent 3 was added, mixed evenly, standing for 5 min;\n(11) OD value was measured at 545 nm.", "note": "Ends that are not written are not given here."}
{"sequence": "RVLNGPEAPA [brap]", "values": [{"measurement": "Blood endotoxin level compared with the model group", "value": "obviously below that in the model group"}]}
